Data on 27 compounds can be found in patent publication US8410056B2, “Pro-oxidant anti-cancer compounds” (priority 2006, dated 2013).

Data set [1] has as its system Jurkat, HBT11, MCF7, MCF7-C3. To be noted: Birringer et al, cited from earlier work; for pro-apoptotic activity: compared with α-TOS and isomers; for IC50: Jurkat, HBT11, MCF7, MCF7-C3, 2003.
Data set [2] deals with T1, complex II/SDH-dependent activity in NeuTL cells (Mus musculus, UniProt Q8K2B3+Q9CQA3+Q9CXV1+Q9CZB0).
T1 construct: For specifically measuring complex II activity in whole cells; endogenous in cells; host or cells: NeuTL murine breast cancer cells
T1 sequence (Q8K2B3 43-664): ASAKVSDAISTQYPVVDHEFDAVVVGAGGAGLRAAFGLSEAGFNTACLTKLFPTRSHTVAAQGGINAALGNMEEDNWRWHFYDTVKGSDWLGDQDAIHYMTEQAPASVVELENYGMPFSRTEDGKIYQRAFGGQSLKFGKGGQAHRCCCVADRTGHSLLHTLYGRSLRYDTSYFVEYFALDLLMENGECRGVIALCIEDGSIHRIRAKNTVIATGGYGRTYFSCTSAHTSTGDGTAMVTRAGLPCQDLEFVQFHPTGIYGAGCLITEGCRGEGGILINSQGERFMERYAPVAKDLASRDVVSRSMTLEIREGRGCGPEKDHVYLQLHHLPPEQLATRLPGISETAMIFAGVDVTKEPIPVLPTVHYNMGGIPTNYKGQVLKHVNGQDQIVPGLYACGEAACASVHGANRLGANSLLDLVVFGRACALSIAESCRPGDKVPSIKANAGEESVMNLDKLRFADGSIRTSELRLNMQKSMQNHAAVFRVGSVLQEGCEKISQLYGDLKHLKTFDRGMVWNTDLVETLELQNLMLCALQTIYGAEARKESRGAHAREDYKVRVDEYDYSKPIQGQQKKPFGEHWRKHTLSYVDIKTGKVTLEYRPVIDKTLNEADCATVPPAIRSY
T1 sequence (Q9CQA3 31-282): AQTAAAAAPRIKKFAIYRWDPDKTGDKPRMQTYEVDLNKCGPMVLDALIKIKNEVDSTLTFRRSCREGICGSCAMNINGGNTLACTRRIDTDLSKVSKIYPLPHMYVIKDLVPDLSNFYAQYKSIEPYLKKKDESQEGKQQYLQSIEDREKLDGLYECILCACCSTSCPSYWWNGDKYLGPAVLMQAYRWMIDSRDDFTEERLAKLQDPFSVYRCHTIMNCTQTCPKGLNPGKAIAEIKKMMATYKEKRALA
T1 sequence (Q9CZB0 30-169): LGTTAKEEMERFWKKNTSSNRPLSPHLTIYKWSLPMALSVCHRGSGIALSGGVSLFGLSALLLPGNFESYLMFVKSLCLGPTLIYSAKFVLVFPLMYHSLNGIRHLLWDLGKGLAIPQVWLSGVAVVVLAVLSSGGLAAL
T1 sequence (Q9CXV1 57-159): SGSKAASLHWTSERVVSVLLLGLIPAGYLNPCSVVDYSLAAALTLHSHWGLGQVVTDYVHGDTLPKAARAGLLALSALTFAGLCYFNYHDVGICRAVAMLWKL
The data set can be described thus: MTT reduction assay of complex II/SDH activity in whole cells. Conditions: absence of added succinate; 4 h. The format is cell-based, murine. As for the experimental part: MTT assay. MTT solutions were prepared immediately before use by dissolving 2.5 mg/ml 3-(4,5-dimethyl[…] (MTT) (Sigma) in PBS alone or phenol red-free RPMI medium containing 20 mM succinic acid, pH 7.4. Stock solutions of 3-nitropropionic acid (3NPA) in ethanol, thenoyltrifluoroacetone (TTFA) in DMSO, 3-BP in PBS, α-TOS in DMSO, and MitoQ (Alleva et al, 2003, James et al, 2005) in ethanol were prepared. The drugs were tested on NeuTL cells cultured in exponential growth phase in 96-well microtitre plates using 4-8 replicate wells per dilution assayed. To assess the ability of MitoQ to restore MTT reduction, cells were pre-incubated for 60 min with 2 or 5 μM MitoQ. Final concentrations of ethanol or DMSO in cultures were ≦0.1%. Treated and control cells were allowed to reduce MTT to blue formazan crystals for 2 or 4 h at 37° C. and 5% CO2. After incubation, culture supernatants were removed except for 30 μl, before the formazan crystals were solubilized by addition of 150 μl DMSO, and absorbance values were measured at 570 nm using a Fluorostar Optima plate reader.
To this end, the present inventors investigated whether α-TOS interferes with UbQ binding in complex II. For specifically measuring complex II activity in whole cells, a short-term (1-2 h) assay was used based on the reduction of the tetrazolium salt, MTT (Maehara et al, 1988). […] For this, oxidative respiration of murine NeuTL breast cancer cells was sustained on high levels of succinate (20 mM), thereby promoting the SDH activity of complex II (Maehara et al, 1988). The cells were then assayed within 1-2 h for their ability to enzymatically reduce MTT, which under conditions of high succinate becomes a specific indicator of complex II/SDH-dependent activity (Maehara et al, 1988, Berridge and Tan, 1993).
Background: Tetrazolium assays rely on reduction of a dye to a coloured formazan, in cell work by metabolically active cells.

The next data set deals with Jurkat, U937, Meso-2. To be noted: Tomic-Vatic et al, 2005, cited from earlier work; for IC50: Jurkat, U937, Meso-2; for pro-apoptotic activity: ester bond replaced by amide bond.
A further data set relates to MCF7. To be noted: cited from earlier work.
For the next data set, the system named is B16(F10). Conditions: He et al, 1997, cited from earlier work; for IC50: B16(F10).
The subject of the next data set is mesothelioma. Kind of data set: Clinical study, patient with mesothelioma. The data set is classed as in vivo. To be noted: same patient. As to the method: α-TOS was used to treat mesothelioma in a human cancer patient. […] The blood plasma levels were monitored and levels of α-TOS in the plasma attained 50 μM over prolonged periods during continual application. This is more than sufficient to kill the cancer cells based on in vitro analysis.
The patient was originally receiving high dose opiate medications, neuropathic pain medications, home oxygen, and was predicted to have a life expectancy of 6-8 weeks. After treatment with α-TOS, the patient no longer required analgesia or oxygen.
In December 2005, the patient started receiving transdermal delivery of α-TOS, prepared in a base cream and solubilised with dimethyl sulfoxide (DMSO).
In April 2007, therapy with α-TOS was commenced using a modified formulation mixed in a lipodermal cream (see below). […] In addition, a palpable lesion was visible growing out between the ribs and the right anterior chest wall. The patient was in very poor condition with a low ECOG- no CT scan could be performed at the time of commencing the α-TOS treatment because the patient was too moribund.
α-TOS formulation: 500 gms of Lipoderm cream plus 60 gms α-TOS compounded by the hospital pharmacy. About 30 gms of compounded mix was administered every few days, and the upper body was wrapped in plastic film (“saran wrap”) to improve absorption.

Data set [3] deals with T2, α-tocopherol transfer protein (α-TTP) (Rattus norvegicus, UniProt P41034).
T2 sequence (P41034 1-278): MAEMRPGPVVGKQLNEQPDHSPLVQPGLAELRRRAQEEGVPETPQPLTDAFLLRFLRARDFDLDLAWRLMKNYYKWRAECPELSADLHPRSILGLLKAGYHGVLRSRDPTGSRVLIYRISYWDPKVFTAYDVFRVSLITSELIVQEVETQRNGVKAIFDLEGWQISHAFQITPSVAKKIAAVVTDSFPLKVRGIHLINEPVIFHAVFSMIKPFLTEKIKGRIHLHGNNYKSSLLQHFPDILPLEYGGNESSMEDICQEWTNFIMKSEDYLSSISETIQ
To be noted: α-tocopherol 100%; Hosomi et al, 1997; cited from earlier work.

Each structure is given as a SMILES string. Structures can show the parent of a compound that is named as a salt.

By IC50 is commonly meant the point on the concentration scale where inhibition reaches its midpoint. Take `Cc1c(C)c2c(c(C)c1OC(=O)C=CC(=O)O)CCC(C)(CCCC(C)CCCC(C)CCCC(C)C)O2` (stereo not drawn) [Compound 3, α-tocopheryl maleate]: in data set [1], the “pro-apoptotic activity” value is “Even greater pro-apoptotic activity” and the IC50 is 22 µM. Regarding `O=C(O)CC[N+](=O)[O-]` [Compound 3NPA, 3-nitropropionic acid], in data set [2], the “complex II-mediated MTT reduction” value is on record as “potent inhibitors of the complex II-mediated MTT reduction”.

Take `Cc1c(C)c2c(c(C)c1OC(=O)CCCC(=O)O)CCC(C)(CCCC(C)CCCC(C)CCCC(C)C)O2` (stereo not shown) [Compound 5]: the “pro-apoptotic activity” value in data set [1] is “decreased activity”. On to `Cc1c(C)c2c(c(C)c1OC(=O)CC(C)CC(=O)O)CCC(C)(CCCC(C)CCCC(C)CCCC(C)C)O2` (stereo not shown) [Compound 6], for which, in data set [1], the “pro-apoptotic activity” value is reported as “decreased activity”. Regarding `Cc1c(C)c2c(c(C)c1OC(=O)CC(C)(C)CC(=O)O)CCC(C)(CCCC(C)CCCC(C)CCCC(C)C)O2` (stereo not shown) [Compound 7], in data set [1], the “pro-apoptotic activity” value is on record as “decreased activity”. Regarding `COC(=O)CCC(=O)Oc1c(C)c(C)c2c(c1C)CCC(C)(CCCC(C)CCCC(C)CCCC(C)C)O2` (stereo not shown) [Compound 9], the “pro-apoptotic activity” value in data set [1] was “without pro-apoptotic activity”.

As to `Cc1c(C)c2c(c(C)c1NC(=O)CCC(=O)O)CCC(C)(CCCC(C)CCCC(C)CCCC(C)C)O2` (stereo not shown) [Compound 12], in the data set with Jurkat, U937, Meso-2, the IC50 was 13 µM and the “pro-apoptotic activity” value is given as “further enhancement of pro-apoptotic activity”.

Consider `Cc1c(C)c2c(c(C)c1NC(=O)C=CC(=O)O)CCC(C)(CCCC(C)CCCC(C)CCCC(C)C)O2` (stereo not shown) [Compound 13], for which, in the data set on Jurkat, U937, Meso-2, the concentration for half-maximal inhibition (IC50) is 2 µM and the “pro-apoptotic activity” value is listed as “further enhancement of pro-apoptotic activity”. With `COC(=O)CCC(=O)Nc1c(C)c(C)c2c(c1C)CCC(C)(CCCC(C)CCCC(C)CCCC(C)C)O2` (stereo not shown) [Compound 14], the IC50 in the data set with Jurkat, U937, Meso-2 was above 100 µM. For `Cc1c(C)c2c(c(C)c1OC(=O)C(N)CCCCN)CCC(C)(CCCC(C)CCCC(C)CCCC(C)C)O2` (stereo not shown) [Compound 16], the IC50 in the data set on MCF7 is 12 µM. As for `Cc1c(C)c2c(c(C)c1CC(=O)O)CCC(C)(CCCC(C)CCCC(C)CCCC(C)C)O2` (stereo not shown) [Compound 22], the “EC50 [μg/ml]” value with MCF7 (Shiau et al, 2006, footnote g) is 15-20^g μg/ml.

In the case of `Cc1cc(OC(=O)CCC(=O)O)cc2c1OC(C)(CCCC(C)CCCC(C)CCCC(C)C)CC2` (stereo not shown) [Compound 35], in data set [1], the “pro-apoptotic activity” value is “least effective” and the IC50 was 66 µM. Regarding `Cc1cc(OC(=O)C=CC(=O)O)cc2c1OC(C)(CCCC(C)CCCC(C)CCCC(C)C)CC2` (stereo not shown) [Compound 36], the IC50 with Jurkat, U937, Meso-2 was 49 µM. As for `Cc1cc(NC(=O)CCC(=O)O)cc2c1OC(C)(CCCC(C)CCCC(C)CCCC(C)C)CC2` (stereo not shown) [Compound 37], in the data set with Jurkat, U937, Meso-2, the IC50 is 20 µM and the “pro-apoptotic activity” value is “further enhancement of pro-apoptotic activity”. As to `Cc1cc(NC(=O)C=CC(=O)O)cc2c1OC(C)(CCCC(C)CCCC(C)CCCC(C)C)CC2` (stereo not shown) [Compound 38], in the data set with Jurkat, U937, Meso-2, the IC50 was 9 µM and the “pro-apoptotic activity” value was “further enhancement of pro-apoptotic activity”. Consider `Cc1c(C)c2c(c(C)c1OC(=O)C(N)CCCCN)CCC(C)(CO)O2` (stereo not shown) [Compound 47], for which the IC50 with MCF7 is 194 µM.

Consider `CCCCCOCC1(C)CCc2c(C)c(OC(=O)C(N)CCCCN)c(C)c(C)c2O1` (stereo not shown) [Compound 48], for which the IC50 in the data set on MCF7 is 22 µM. For `CCCCC(=O)OCC1(C)CCc2c(C)c(OC(=O)C(N)CCCCN)c(C)c(C)c2O1` (stereo not shown) [Compound 49], the IC50 in the data set with MCF7 is 15 µM. As to `CC(C)=CCC/C(C)=C/CC/C(C)=C/CC[C@]1(C)CCc2cc(O)cc(C)c2O1` [Compound 59, δ-tocotrienol], in the data set on B16(F10), the IC50 is 10 µM and the “potency in the murine B16-F10 melanoma cell model” value is “most potent agent”.

Turning to `CC(C)=CCC/C(C)=C/CC/C(C)=C/CCC1(C)CCc2cc(O)ccc2O1` (stereo not shown) [Compound 60, desmethyl tocotrienol], in the data set with B16(F10), the IC50 was 0.9 µM. With `Nc1ccn([C@@H]2O[C@H](CO)[C@@H](O)C2(F)F)c(=O)n1` [Gemcitabine, reference compound], the “toxicity of other therapies (medical history)” value (“toxicity of other therapies” below) with mesothelioma is recorded as “unacceptable levels of toxicity”.

As for `CCC1=C[C@@H]2CN(C1)Cc1c([nH]c3ccccc13)[C@@](C(=O)OC)(c1cc3c(cc1OC)N(C)[C@H]1[C@@](O)(C(=O)OC)[C@H](OC(C)=O)[C@]4(CC)C=CCN5CC[C@]31[C@@H]54)C2` [Vinorelbine, reference compound], in the data set on mesothelioma, the “toxicity of other therapies” value was “severe exacerbation of peripheral neuropathy”. On to `Oc1ccc(C2=Cc3ccc(O)cc3OC2)cc1` [phenoxodiol, reference compound], for which the “toxicity of other therapies” value in the data set on mesothelioma is “ongoing severe neuropathy”. With `Cc1c(C)c2c(c(C)c1O)CC[C@@](C)(CCC[C@H](C)CCC[C@H](C)CCCC(C)C)O2` [α-tocopherol], the “relative affinities for α-TTP” value in data set [3] is recorded as 100%. For the compound `Cc1cc(O)c(C)c2c1O[C@](C)(CCC[C@H](C)CCC[C@H](C)CCCC(C)C)CC2` [β-tocopherol], the “relative affinities for α-TTP” value in data set [3] is listed as 38%. As for `Cc1c(O)cc2c(c1C)O[C@](C)(CCC[C@H](C)CCC[C@H](C)CCCC(C)C)CC2` [γ-tocopherol], the “relative affinities for α-TTP” value in data set [3] is listed as 9%. Consider `Cc1cc(O)cc2c1O[C@](C)(CCC[C@H](C)CCC[C@H](C)CCCC(C)C)CC2` [δ-tocopherol], for which the “relative affinities for α-TTP” value in data set [3] is 2%.
